In the NIST ThermoML archive (doi:10.1021/je7003337):
Numbers after ± are expanded uncertainties.

Assay: refractive index (Na D-line) (dimensionless)
Settings: 298.15 K; 101.33 kPa; Liquid; Standard Abbe refractometry

| SMILES | refractive index |
| --- | --- |
| Cc1ccc(C)cc1 [1,4-dimethylbenzene] | 1.49321 ± 0.00072 |
| CCCCCC [hexane] | 1.37226 ± 0.00072 |
